# Laboratory results: paper PMC8707700, “Ru(III) Complexes with Lonidamine-Modified Ligands” (International Journal of Molecular Sciences, 2021)
# Read-outs that look alike come from different tables or passages of the source.
# Columns and labels:
# A549 = test: Antiproliferative activity, MTT assay; format: cell-based, human; details: read-out: IC50, µM A549
# Procedure: (§1) The antiproliferative activity of new ligands and complexes was determined against human cell lines, including colon adenocarcinoma SW480, breast adenocarcinoma MCF-7, lung adenocarcinoma A549, neuroblastoma SHSY5Y, and non-tumourigenic HaCaT (Table 4). In general, complexes were more cytotoxic compared to ligands, lonidamine, and, in some cases, cisplatin. […] We chose this compound and the synthetically accessible complex 16 for mechanistic studies.
# (§2) The antiproliferative activity was studied by MTT assays as published previously. For flow cytometry studies, cells were plated into 6-well plates (Eppendorf, Germany; 4 × 10^5 cells in 2 mL of DMEM) and incubated for 24 h. Solutions of complexes in DMSO were prepared immediately prior to the day of the experiments. Cells were treated with either 20 µM of cisplatin, 50 µM of 16, or 20 µM of 20. Concentrations corresponded to two-fold IC50 values based on MTT assays. Cells were incubated for 24 h, pooled, washed with cold PBS, and resuspended in DMEM. Aliquots of cells were processed as recommended in the Muse Annexin V&Dead Cell Kit or Muse Caspase-3/7 Kit (Luminex). Measurements were carried out on a Muse Cell Analyser, Luminex corp., TX, USA.
# HaCaT = test: Antiproliferative activity, MTT assay; format: cell-based, human; details: read-out: IC50 HaCaT
# Procedure: as §1, §2
# SW480 = test: Antiproliferative activity, MTT assay; format: cell-based, human; details: read-out: IC50, µM SW480
# Procedure: as §1, §2
# MCF-7 = test: Antiproliferative activity, MTT assay; format: cell-based, human; details: read-out: IC50, µM MCF-7
# Procedure: as §1, §2
# [1] = Cyclic voltammetry (redox potentials); format: physicochemical; details: Pt and GC electrodes, CH3CN and CH2Cl2, any applied potential
# Procedure: The redox behaviour of ligand 10 and complexes 15–20 was studied on Pt and glassy carbon (GC) electrodes in CH3CN and CH2Cl2.
# All electrochemical measurements were carried out under argon at room temperature. Cyclic voltammetry (CV) experiments were performed in KO264 PAR three-electrode microcells in CH3CN solution with 0.05 M of Bu4NBF4 as a supporting electrolyte using a IPC-Win potentiostat. The number of transferred electrons was determined by comparing to the height of the […] wave for the same concentration. A glassy carbon (GC) working electrode (diameter 2 mm), a platinum wire auxiliary electrode, and an aqueous Ag/AgCl/KCl (sat.) reference electrode was used. Solvents were routinely distilled and dried prior to use.
# HCT116 cells = test: Annexin V/7-AAD flow cytometry (Muse Annexin V & Dead Cell Kit); format: cell-based; details: HCT116, 24 h, 2xIC50; one representative experiment
# Procedure: Mechanisms of cell death, that is, Annexin V/7-AAD reactivity and caspase 3/7 activation, were determined for 16 and 20 in HCT116 cells using the Muse® Annexin V & Dead Cell Kit (Luminex corp., Austin, TX, USA) and flow cytometry. Cells were incubated with 16, 20, or cisplatin (reference drug) for 24 h at concentrations corresponding to 2xIC50 values (obtained in MTT assays; Table 4). The percentages of Annexin V-positive cells in response to 16 and 20 were higher than cisplatin (Figure 8). Complex 20 with the C12 linker induced Annexin V positivity slightly more efficiently than 16 with the C3 linker (27.4 ± 2.1% vs. 19.7 ± 0.6%).
# as §2
# SH-SY5Y = test: Antiproliferative activity, MTT assay; format: cell-based, human; details: 72 h exposure, mean ± SD
# Procedure: as §1, §2
# [2] = Stability of Ru(III) complexes in phosphate buffer by UV-vis spectrophotometry; format: physicochemical; details: 20 mM phosphate buffer pH 7.4, 100 mM NaCl, 37 °C; mean ± SD, three experiments
# Procedure: The stability of Ru(III) complexes (15–20) was investigated in a solution resembling physiological conditions (20 mM of phosphate buffer, pH 7.4, and 100 mM of NaCl at 37 °C) by UV-vis spectrophotometry (Table 1). The half-transformation time t1/2 was calculated based on changes in the electronic absorption spectrum (Figure S1) and defined as the value of t at the Alin/2 point. ΔA(t) was plotted against λmax; the initial section was approximated as a linear function.
# The stability of Ru(III) complexes was studied by electron absorption spectroscopy in 20 mM of phosphate buffer, pH 7.4, and 100 mM of NaCl. The working solution (2 mL, 200 μM complex) was prepared by diluting 10 μL of the original 40 mM solution in DMSO and 1.99 mL of phosphate buffer. UV-vis spectra were recorded every 60 s in the range of 280–600 nm at 37 °C. The half-transformation time was t1/2. For λmax, ΔA(t) was plotted, where ΔA = A0–Ai, an initial section, was approximated as a linear function. At ΔAline./2 point calculated as t = t1/2.
# [3] = Lipophilicity, shake-flask method water/n-octanol; format: physicochemical; details: UV-vis, mean ± SD
# Procedure: The lipophilicity of complexes 15–20 was studied using a standard shake-flask method in a mixture of water/n-octanol. For the quantification of compounds in the water phase, UV-vis spectrophotometry was used. […] Among other complexes, as expected, 20 was the most lipophilic (Table 1).
# N-octanol was saturated with water and with water saturated with n-octanol; mixture400 mL of n-octanol (water) and 100 mL of water (n-octanol) was stirred for 24 h; and then fractions were separated. The sample of the complex was dissolved in n-octanol and a series of solutions in octanol (300, 250, 3 × 200, 150, 100, and 50 μM) was prepared. Absorption spectra were recorded and the calibration curve for maximum absorption was plotted. From 200 μM solutions, the mixtures with water were prepared (1:1, 1:2, 2:1 v/v) and shaken for 15 min. The organic phase was separated by centrifugation. The concentration of the complex in n-octanol was determined from the calibration curve and lipophilicity (logP) was calculated as log P = log [(C0–Caq)/Caq].
Compound,"IC50 (A549; Homo sapiens, A549, 72 h)","IC50 (HaCaT; Homo sapiens, HaCaT, 72 h)","IC50 (SW480; Homo sapiens, SW480, 72 h)","IC50 (MCF-7; Homo sapiens, MCF7, 72 h)",melting point,"IC50 (A549; MTT, 72 h exposure, mean ± SD)","IC50 (SW480; MTT, 72 h exposure, mean ± SD)",IC50 (SH-SY5Y),"IC50 (MCF-7; MTT, 72 h exposure, mean ± SD)",t1/2 (half-transformation time) [2],other results
"O=C(NCCn1ccnc1)c1nn(Cc2ccc(Cl)cc2Cl)c2ccccc12 [Compound 9, N-(2-(1H-Imidazol-1-yl)ethyl)-1-(2,4-dichlorobenzyl)-1H-indazole-3-carboxamide]",50 ± 16 µM,23 ± 2 µM,48 ± 10 µM,35 ± 6 µM,120 to 121 °C,–,–,–,–,–,–
"O=C(NCCCn1ccnc1)c1nn(Cc2ccc(Cl)cc2Cl)c2ccccc12 [Compound 10, N-(3-(1H-Imidazol-1-yl)propyl)-1-(2,4-dichlorobenzyl)-1H-indazole-3-carboxamide]",> 90 µM,39 ± 4 µM,> 90 µM,> 90 µM,121 to 122 °C,–,–,–,–,–,redox transitions of the ligand [1]: redox transitions were not observed
"O=C(NCCCCn1ccnc1)c1nn(Cc2ccc(Cl)cc2Cl)c2ccccc12 [Compound 11, N-(4-(1H-Imidazol-1-yl)butyl)-1-(2,4-dichlorobenzyl)-1H-indazole-3-carboxamide]",25 ± 7 µM,45 ± 3 µM,28 ± 8 µM,22 ± 6 µM,98 to 100 °C,–,–,–,–,–,–
"O=C(NCCCCCCn1ccnc1)c1nn(Cc2ccc(Cl)cc2Cl)c2ccccc12 [Compound 12, N-(6-(1H-Imidazol-1-yl)hexyl)-1-(2,4-dichlorobenzyl)-1H-indazole-3-carboxamide]",24 ± 10 µM,40 ± 4 µM,16 ± 6 µM,17 ± 2.5 µM,–,–,–,–,–,–,–
"O=C(NCCCCCCCCn1ccnc1)c1nn(Cc2ccc(Cl)cc2Cl)c2ccccc12 [Compound 13, N-(8-(1H-Imidazol-1-yl)octyl)-1-(2,4-dichlorobenzyl)-1H-indazole-3-carboxamide]",15 ± 6 µM,45 ± 2 µM,> 90 µM,10 ± 2 µM,–,–,–,–,–,–,–
"O=C(NCCCCCCCCCCCCn1ccnc1)c1nn(Cc2ccc(Cl)cc2Cl)c2ccccc12 [Compound 14, N-(12-(1H-Imidazol-1-yl)dodecyl)-1-(2,4-dichlorobenzyl)-1H-indazole-3-carboxamide]",15 ± 2.2 µM,–,8.4 ± 1.6 µM,20.8 ± 4.7 µM,86 to 88 °C,–,–,–,–,–,–
"N.N.[Cl][Pt][Cl] [cisplatin, reference compound]",–,–,–,–,–,23 ± 6.5 µM,21.7 ± 0.5 µM,9.5 ± 0.1 µM,> 30 µM,–,"early apoptosis (Annexin V/7-AAD) (HCT116 cells): 4%; late apoptosis (Annexin V/7-AAD) (HCT116 cells): 8%; live cells (Annexin V/7-AAD) (HCT116 cells): 88%; necrosis (Annexin V/7-AAD) (HCT116 cells): 0%; IC50 (HaCaT; MTT, 72 h exposure, non-tumourigenic cells, mean ± SD): 10 ± 5 µM"
"O=C(O)c1nn(Cc2ccc(Cl)cc2Cl)c2ccccc12 [lonidamine, 1-(2,4-dichlorobenzyl)-1H-indazole-3-carboxylic acid]",–,–,–,–,–,–,–,–,–,–,"IC50 (A549; Homo sapiens, A549, MTT, 72 h exposure, mean ± SD): > 90 µM; IC50 (HaCaT; Homo sapiens, HaCaT, MTT, 72 h exposure, non-tumourigenic cells, mean ± SD): 3 ± 1 µM; IC50 (SW480; Homo sapiens, SW480, MTT, 72 h exposure, mean ± SD): > 90 µM; IC50 (SH-SY5Y; Homo sapiens, SH-SY5Y): > 30 µM; IC50 (MCF-7; Homo sapiens, MCF7, MTT, 72 h exposure, mean ± SD): 30 ± 10 µM"
Na[trans-Ru(DMSO)(C20H17Cl2N5O)Cl4] [Compound 15],–,–,–,–,–,> 30 µM,21.4 ± 1.8 µM,25.8 ± 4.5 µM,20.4 ± 0.1 µM,6 ± 0.333 min,–
Na[trans-Ru(DMSO)(C22H21Cl2N5O)Cl4] [Compound 17],–,–,–,–,–,> 30 µM,21 ± 1.8 µM,27.7 ± 3.3 µM,> 30 µM,6 ± 0.333 min,–
Na[trans-Ru(DMSO)(C24H25Cl2N5O)Cl4] [Compound 18],–,–,–,–,–,12.9 ± 1 µM,19.6 ± 3.9 µM,5.1 ± 2.5 µM,22 ± 0.7 µM,10.8 ± 0.5 min,Log P [3]: 0.6 ± 0.1
Na[trans-Ru(DMSO)(C26H29Cl2N5O)Cl4] [Compound 19],–,–,–,–,–,5.9 ± 2.6 µM,9.3 ± 0.1 µM,2.64 ± 1.5 µM,17.1 ± 0.3 µM,23.17 ± 1.17 min,–
